Measurements reported in publication doi:10.1101/2025.07.20.665728 (bioRxiv, 2025).

Legend:
C1R.MR1 cells [1] = experiment: Cell surface MR1 quantification by flow cytometry, C1R.MR1; assay type: cell-based; conditions: for MR1 cell surface expression: 1–200 μM
Method: Next, we investigated whether these RF catabolites can impact MR1 cell surface expression in both MR1-transduced B cell lymphoblastoid (C1R.MR1) and monocytic (THP-1.MR1) cell lines (Fig. 2). Here, the cells were pulsed with 1–200 μM of RF or the RF catabolites, and the cell surface levels of MR1 were quantified by flow cytometry ([Awad et al., 2020a]; [Keller et al., 2017]). Cell viability was unaffected, even at highest concentrations of the catabolites, as depicted in Fig. S2A. […] No impact on the MR1 surface level was observed when the parental C1R cells were incubated with these RF catabolites, probably due to the low basal surface MR1 level whose further reduction becomes undetectable by the anti-MR1 antibody (Fig. S2B). The MR1 downregulation seen in C1R.MR1 cells was specific to MR1 as the level of HLA-A*02:01 was not affected after pulsing C1R-A2 with the ligands (Fig. S2C). […] This MR1 downregulation varied between cell types, with a higher extent observed in THP-1.MR1 than C1R.MR1, and was seen after staining with both two conformational anti-MR1 8F2F9 and 26.5 antibodies (clones 8F2F9 and 26.5; Fig. 2G).
The level of MR1 expressed on the cell surface was measured after the exposure to the investigated ligands as previously described ([Awad et al., 2020a]; [Wang et al., 2022a]). C1R antigen presenting B lymphocytes overexpressing MR1*01 (C1R.MR1), MR1^K43A mutant (C1R.MR1^K43A), MR1^R9H mutant (C1R.MR1^R9H) or HLA-A*02:01 (C1R-A2), in addition to the monocytic THP-1-MR1 cells, were used in this study. 2 x 10^5 cells were incubated with RF catabolites for 3 or 16 h at 37° C and 5% CO2 in 200 μl folate-free RPMI 1640 medium from Gibco (Cat. No. 11875-093) fortified with 10% fetal bovine serum (FBS), sodium pyruvate (1 mmol/L), Hepes buffer (15 mmol/L), pH 7.2 to 7.5, 2% penicillin (100 U/ml), streptomycin ([…]), glutamax (2 mmol/L), nonessential amino acids (0.1 mmol/L) (all from ThermoFisher, Life Technologies), and 2-mercaptoethanol ([…], Sigma) (RF-10). After incubation, the cells were first stained with Zombie Aqua Fixable Viability Kit from BioLegend (Cat. No. 423102) and then incubated with biotinylated 8F2F9 αMR1 antibody for 30 minutes on ice. The unbound antibody was then washed off with 2% fetal bovine serum/PBS. The cells were finally incubated with PE-conjugated streptavidin (BioLegend, 30 μg/ml) and then washed with 2% fetal bovine serum/PBS. The PE fluorescence intensity reflects the surface MR1 level. The data was acquired with an LSRFortessa X-20 (BD Biosciences) and Diva software (BD Biosciences) and analyzed using FlowJo software (BD Biosciences).

C1R.MR1 cells [2] = experiment: Competition with Ac-6-FP/5-OP-RU-induced MR1 upregulation, C1R.MR1; assay type: cell-based; conditions: for reduction of Ac-6-FP response: 200 μM (highest concentration), overnight, cell line not given
[3] = molecular target: T1, human MR1-β2-microglobulin (β2m) complex (Homo sapiens, UniProt Q95460); experiment: In vitro refolding of MR1-β2m co-complex with ligand; assay type: binding; conditions: ligand added to refolding buffer
T1 construct: plasmids encoding for the extracellular domains of MR1, β2m, and the AF-7 TCRα and TCRβ chains; made in house
Source text: We then assessed the capacity of RF and its catabolites to be loaded within recombinant MR1. The human MR1-β2-microglobulin (β2m) complex can only co-purify when the MR1 Ag-binding pocket is occupied with ligand ([Kjer-Nielsen et al., 2012]). […] Next, we examined how these catabolites could stabilize MR1 using an in vitro MR1-Ag complexes through thermostability assay ([Eckle et al., 2014]) (Fig. 1H). Here, the half-maximum melting temperatures (Tm50) of the stable complexes MR1-5-OP-RU and MR1-Ac-6-FP were 58.65 ± 0.42 and 62.12 ± 0.37 °C; respectively, consistent with previous values ([Eckle et al., 2014]). […] Thus, the binding of these ligands stabilizes the MR1 protein but to a lower extent in comparison to MR1-5-OP-RU and MR1-Ac-6-FP (Fig. 1H).
Escherichia coli BL21(DE3) cells were transformed with plasmids encoding for the extracellular domains of MR1, β2m, and the AF-7 TCRα and TCRβ chains ([Kjer-Nielsen et al., 2012]; [Patel et al., 2013]; [Wang et al., 2022a]). The proteins were then expressed, and the inclusion bodies were purified, cleaned, and used for refolding. For both MR1 and AF-7 TCR, inclusion bodies were refolded through rapid dilution overnight as previously mentioned ([Keller et al., 2017]). To refold MR1 with ligands, 58 mg MR1 inclusion bodies along with 30 mg of β2m inclusion bodies were placed in a 500 ml of refold buffer consisting of 0.1 M Tris pH 8.0, 5 M of urea, 2 mM EDTA, 2.5 mM oxidized glutathione, 20 mM reduced glutathione and 0.4 M of L-arginine for 16 h at 4° C. Ligands were dissolved in dilute NaOH and added directly into the refolding buffer. […] The refolded MR1-ligand complex was dialyzed against 10 mM Tris pH 8.0 overnight and purified using size-exclusion (Superdex 200, GE Healthcare) and anion-exchange (HiTrapQ, GE Healthcare) chromatography techniques ([Awad et al., 2020a]).

C1R.MR1 cells [4] = experiment: Intracellular total folded MR1 by flow cytometry (8F2.F9); assay type: cell-based; conditions: C1R.MR1, 100 μM, 16 h
MAIT cells in human PBMC = experiment: Primary MAIT activation (CD69) in PBMCs; assay type: cell-based; conditions: 16 h, co-incubation with 5-OP-RU
C1R.MR1^R9H cells = experiment: Cell surface MR1 R9H quantification, C1R.MR1^R9H; assay type: cell-based
Source text: We then tested the effect of the RF catabolites on the expression of two mutant versions of MR1 termed MR1^R9H ([Howson et al., 2020]) and MR1^K43A ([Reantragoon et al., 2013]). First, we tested the MR1^R9H mutant ([Howson et al., 2020]) which represents a rare, natural human polymorph. […] When C1R. […] Next, we tested sought to understand how the previously characterised Lys43A mutation affects ligand binding. […] While this is in line with the ability of these ligands to bind MR1, the reason for MR1^K43A cell surface accumulation is less clear. The most likely explanation is that these ligands bind ER-resident MR1^K43A, in line with our data using wild-type MR1; however, because the K43A mutation results in spontaneous MR1 surface egress, the presence of these stabilising ligands promotes enhanced trafficking and/or retention at the cell surface. We cannot rule out however that the ligands may also bind directly to surface MR1^K43A and slow down the recycling from cell surface.
The level of MR1 expressed on the cell surface was measured after the exposure to the investigated ligands as previously described ([Awad et al., 2020a]; [Wang et al., 2022a]). […] The PE fluorescence intensity reflects the surface MR1 level. The data was acquired with an LSRFortessa X-20 (BD Biosciences) and Diva software (BD Biosciences) and analyzed using FlowJo software (BD Biosciences).

T1 sequence (Q95460 23-302 limits assumed): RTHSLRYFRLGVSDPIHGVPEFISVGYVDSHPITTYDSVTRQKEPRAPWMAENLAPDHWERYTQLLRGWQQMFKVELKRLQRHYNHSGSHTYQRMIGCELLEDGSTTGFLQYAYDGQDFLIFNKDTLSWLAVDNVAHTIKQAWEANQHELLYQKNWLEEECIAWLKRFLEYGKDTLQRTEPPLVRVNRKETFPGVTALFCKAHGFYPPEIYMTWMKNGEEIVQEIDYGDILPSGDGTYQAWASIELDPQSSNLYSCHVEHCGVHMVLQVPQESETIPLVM
T1 sequence (P61769 21-119 partner): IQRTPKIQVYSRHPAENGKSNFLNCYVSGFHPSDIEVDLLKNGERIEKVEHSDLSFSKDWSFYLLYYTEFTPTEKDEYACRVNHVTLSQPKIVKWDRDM

Q: How did the “MR1 cell surface expression” value (C1R.MR1 cells [1]; C1R.MR1, 3 h) turn out when `O=c1nc2[nH]c3ccccc3nc-2c(=O)[nH]1` [Alloxazine, alloxazine] was run?
A: The value was “reduced MR1 cell surface”.

Q: What about the “reduction of Ac-6-FP response” value (C1R.MR1 cells [2]; then 10 μM Ac-6-FP 3 h) of the same compound?
A: The value was “more than 80%”.

Q: And the “folding of the MR1-β2m co-complex in solution” value (shortened to “folding”) [3]?
A: Its value is “facilitated the correct folding”.

Q: What about the “total level of folded MR1 (intracellular staining with 8F2.F9)” value (C1R.MR1 cells [4]) of the same compound?
A: The value was “also increased the total level of folded MR1”.

Q: Which “MR1 cell surface expression” value (C1R.MR1 cells [1]; C1R.MR1, 3 h) does the source give for `Cc1cc2nc3[nH]c(=O)[nH]c(=O)c3nc2cc1C` [Lumichrome, 7,8-dimethylalloxazine] here?
A: The value was “reduced MR1 cell surface”.

Q: What about the “rank as down-regulator of MR1 cell surface expression” value (C1R.MR1 cells [1]; overall, C1R.MR1 and THP-1.MR1) of the same compound?
A: The value was “most potent down-regulator”.

Q: And the “competition with 5-OP-RU for MAIT activation (CD69)” value (MAIT cells in human PBMC)?
A: The value was “most potent competitor”.

Q: And the “reduction of Ac-6-FP response” value (C1R.MR1 cells [2]; then 10 μM Ac-6-FP 3 h)?
A: The value was “more than 80%”.

Q: What about the “folding” value [3] of the same compound?
A: Its value is “facilitated the correct folding”.

Q: And the “total level of folded MR1 (intracellular staining with 8F2.F9)” value (C1R.MR1 cells [4])?
A: Its value is “also increased the total level of folded MR1”.

Q: What does the source list for `Cc1cc2nc3c(=O)[nH]c(=O)nc-3n(C)c2cc1C` [Lumiflavin]?
A: reduction of Ac-6-FP response (C1R.MR1 cells [2]; then 10 μM Ac-6-FP 3 h): more than 80%; folding of the MR1-β2m co-complex in solution [3]: facilitated the correct folding

Q: For `Cc1cc2nc3c(=O)[nH]c(=O)nc-3n(C[C@H](O)[C@H](O)[C@H](O)CO)c2cc1C` [RF, Riboflavin], which “MR1 cell surface expression” value (C1R.MR1 cells [1]; C1R.MR1, 3 h) is on record?
A: Its value is “did not alter MR1 expression from the baseline”.

Q: What about the “MR1 cell surface expression” value (C1R.MR1 cells [1]; C1R.MR1, 16 h) of the same compound?
A: Its value is “modestly upregulated MR1”.

Q: And the “competition with 5-OP-RU for MAIT activation (CD69)” value (MAIT cells in human PBMC)?
A: The value was “potent concentration-dependent competition”.

Q: And the “effect on Ac-6-FP-induced cell surface upregulation of MR1” value (C1R.MR1 cells [2]; C1R.MR1, 1–200 μM overnight, then 10 μM Ac-6-FP 3 h)?
A: The value was “did not modulate”.

Q: What about the “effect on 5-OP-RU-induced cell surface upregulation of MR1” value (C1R.MR1 cells [2]; C1R.MR1, 1–200 μM overnight, then 5-OP-RU 3 h) of the same compound?
A: The value was “did not modulate”.

Q: And the “MR1^R9H surface level” value (C1R.MR1^R9H cells)?
A: Its value is “did not deviate from the background level”.

Q: And the “folding” value [3]?
A: The value was “did not sponsor refolding”.
